Each structure is given as a SMILES string. “Also recorded” adds a separate entry of the source. Structures can show the parent of a compound that is named as a salt.

In test [1] the test system is ischemia-induced [^3H]-Glu release. Nature of the test: in vitro ischemia model: ischemia-induced [^3H]-Glu release from [^3H]-Gln-loaded hippocampal slices. It counts as cell-based, rat. The protocol: Rat hippocampus slices 350 μm thick were incubated in 3 ml of medium at 37° C. for 60 minutes. The medium contained 2 μM [^3H]-Gln to label the endogenous Gln pool. The slices then synthesized Glu. The slices were washed and then exposed to superfusion with a buffer for 50 minutes. At 5-minute intervals, [^3H]-Glu was extracted by anion exchange chromatography from a total of 15 superfusion samples and was measured by liquid scintillation counting. The fractional rates of [^3H]-Glu release were calculated from the [^3H]-Glu extracted from the superfusion samples and from the tissue slices after the superfusion.
The model of endogenously produced [^3H]-Glu was likewise used to generate ischemic conditions in vitro. To make a slice “quasi ischemic”, oxygen and glucose were replaced by nitrogen and sucrose during the superfusion. Sucrose was used in place of […] glucose in order to maintain the osmolarity of the superfusion fluid. It is known that sucrose cannot be cleaved in vitro to glucose and fructose. Unlike the tests in which the [^3H]-Glu release was induced electrically, and in order to simulate an ischemia as well as possible, the [^3H]-Glu release was carried out during the incubation and superfusion at 37° C.
Slices of 350 μm thickness were incubated at 37° C. for 60 min in 3 ml medium containing 2 μM [^3H]-Gln in order to label endogenous Gln pools. These slices subsequently were synthesizing Glu. The slices were washed and then superfused for 50 min with buffer. [^3H]-Glu was extracted from 15 5-min-superfusion samples and from the slices by anion-exchange chromatography and measured by liquid scintillation counting. Fractional rates of [^3H]-Glu release were calculated from extracted [^3H]-Glu in the superfusion samples and in the tissue slices obtained after superfusion.
To reproduce in vitro ischemic conditions the model of endogenously formed [^3H]-Glu was also used. To make a slice “quasi-ischemic”, oxygen was replaced by nitrogen and glucose was replaced by sucrose during superfusion. Sucrose was used instead of glucose in order to maintain the osmolarity of the superfusion fluid without being cleaved into glucose and fructose in vitro. At variance to the experiments on electrically evoked [^3H]-Glu release and in order to mimic ischemia as close as possible the experiments on ischemia-induced [^3H]-Glu release were performed at 37° C. throughout incubation and superfusion.
To assess the potency of glibenclamide concentration-inhibition curves of GBP-L on ischemia-induced [^3H]-Glu efflux were obtained in the absence and presence of 0.1 μM glibenclamide (see Jehle et al. 2000).

The subject of test [2] is mitochondrial KATP channels. The note with it: for comparison; cited from earlier work.
The test system of test [3] is electrically evoked release of Glu. The test is described as follows: electrically evoked [^3H]-Glu release from [^3H]-Gln-loaded hippocampus slices. It counts as cell-based, rat.
Test [4] concerns potassium-evoked release of [^3H]-noradrenaline. The conditions noted are these: cited from earlier work.

On to `COc1ccc(Cl)cc1C(=O)NCCc1ccc(S(=O)(=O)NC(=O)NC2CCCCC2)cc1` [glibenclamide], for which the pA2 value in test [1] (glibenclamide 0.1 μM against GBP-L concentration-response curve) is listed as 8.28. Besides, the “influence on the effect of GBP-L on ischemia-induced [^3H]-Glu release” value in test [1] (glibenclamide 1 μM) is reported as “completely abolished”.

Regarding `CC1=NS(=O)(=O)c2cc(Cl)ccc2N1` [diazoxide], in test [2], the IC50 was 50 µM.

In the case of `NC1=N[C@H](O)[C@H]2[C@H]3O[C@]4(O)O[C@@H]([C@@H](O)[C@@]2(N1)[C@@H]4O)[C@]3(O)CO` [TTX, tetrodotoxin, reference compound], the “electrically evoked release of Glu (in words)” value in test [3] was “partly inhibited; also recorded: widely inhibited”.

Take `O=C(O)[C@@H]1CN[C@@H](C(=O)O)C1` (relative stereo) [PDC, L-trans-pyrrolidine-2,4-dicarboxylate]: in test [1] (100 μM), the “response to the ischemia ([^3H]-Glu release)” value is recorded as “noticeably reduced; also recorded: diminishes the response to ischemia markedly”.

For the compound `CC(C)C[C@H](CN)CC(=O)O` [pregabalin], the “potassium-evoked release of [^3H]-noradrenaline (in words)” value in test [4] is on record as “inhibitory effects”.

With `Nc1cc(N2CCCCC2)nc(N)[n+]1OS(=O)(=O)[O-]` [minoxidil sulfate], the “ischemia-induced [^3H]-Glu efflux (in words)” value in test [1] (10 μM) was “significantly reduced”.
